# Data from patent publication EP3221371B1, “MONOLITHS” (Monolythix, Inc., priority 2014, dated 2016).
# Test system: fluorescently-labeled cell wall material
# Test: EnzChek Lysozyme Assay of covalently grafted lysozyme
# Assay type: biochemical
# Conditions: one hour at 37 °C, compared with lysozyme standard dilution series (Figure 5)
# Description: After covalently grafting lysozyme to a small block of carboxy monolith polymeric matrix, the sample was placed into a solution of fluorescently-labeled cell wall material (EnzChek® Lysozyme Assay Kit) and incubated for one hour at 37 °C in a plate reader, along with a lysozyme standard dilution series.
# A fresh solution of 160 mg/mL EDAC stock in dry DMSO was prepared. A lysozyme mix was prepared from 20 µL of a 10 mg/mL solution of lysozyme in 1x PBS, 28 µL of a 200 mM MES solution at pH 7.0, and 15 µL water.
# 7 µL 160 mg/mL EDAC was spotted onto a single 20 mg disc formed from monolith material, (1:2:1 TEGDMA:EGDMA:HEMA plus 2.0% MAA). The prepared lysozyme mix (63 µL) was then added and the sample incubated at room temperature for 1 h. A glycine solution (10 µl; 30 mg/mL solution in 100 mM MES solution at pH 7.0) was then added and the sample incubated for 15 min at room temperature. The disc was then rinsed in water and stored at 4 °C until use.
# To test the activity of the immobilized enzyme, a lysozyme-coupled disc and an untreated control disc were each cut into equal 1/8 size pie-shaped segments. Two pieces of each were then added to two wells of a microwell plate and lysozyme substrate was added. […] Fluorescence was read at regular intervals to determine the extent of carbohydrate breakdown and consequent lysozyme activity.
substance,measurement,value
lysozyme chip: Lysozyme covalently grafted with EDAC to carboxy monolith disc (1:2:1 TEGDMA:EGDMA:HEMA plus 2.0% MAA),final fluorescence signal intensity,greater than the highest standard
